This experiment deals with Plasmodium berghei. The experiment is described as follows: Luciferase/luciferin-expressing antifolate-resistant parasites were used to infect a culture of HepG2 cells that were pre-incubated with compounds. Infected hepatocytes emit light due to the luciferase reaction. Assay results are presented as the percent inhibition of light emission compared to control. […]. The experiment is classed as functional. The conditions noted are these: sporozoite; for IC90: read-out: LUCIFERASE INFECTION ASSAY - IC90.

The mark [1] stands for this setting: read-out: LUCIFERASE INFECTION ASSAY - IC50.

As usually defined, the IC50 is the concentration that gives 50% inhibition. The term IC90 denotes the concentration needed for an effect of 90%.

For the molecule `O=C(Nc1ccccc1Nc1cc(-c2ccccc2)nn1-c1ccccc1)c1ccc([N+](=O)[O-])cc1`, the IC90 is over 10 µM. Where the note is “PBLUC_HILL_SLOPE 1.78, PBLUC_R_SQUARED 0.355, read-out: LUCIFERASE INFECTION ASSAY - IC50”, the IC50 is 8.66 µM.

Consider `Clc1ccccc1-c1nc2ccnc(NCCc3ccccc3)c2[nH]1`, for which the IC90 turned out to be 7.97 µM. Besides, the IC50 (HEPG2TOX_HILL_SLOPE 0.707, HEPG2TOX_R_SQUARED 0.751, PBLUC_HILL_SLOPE 2.17, PBLUC_R_SQUARED 0.665, read-out: LUCIFERASE INFECTION ASSAY - IC50) was found to be 2.9 µM.

With `COc1cncc(-c2cc3c(cn2)nc(NCCc2cc(OC)ccc2OC)n3C)c1`, the concentration for an effect of 90% (IC90) turned out to be 8.42 µM. The half-inhibitory concentration (IC50) (HEPG2TOX_HILL_SLOPE 0.77, HEPG2TOX_R_SQUARED 0.89, PBLUC_HILL_SLOPE 0.989, PBLUC_R_SQUARED 0.368, read-out: LUCIFERASE INFECTION ASSAY - IC50) worked out at 0.913 µM.

For the molecule `CSc1sc(-c2ccn(S(=O)(=O)c3ccc(Cl)c(Cl)c3)n2)c2c1C(=O)CC(C)(C)C2`, the concentration for an effect of 90% (IC90) was over 6.58 µM. The IC50 under setting [1] is over 6.58 µM.

For the molecule `CCC(C)NC(=O)c1c(NC(=O)c2ccc(OC)cc2)nc2ccc(C)cn12` (stereo not given), the IC90 is over 8.67 µM. Besides, the IC50 (HEPG2TOX_HILL_SLOPE 1.94, HEPG2TOX_R_SQUARED 0.651, PBLUC_HILL_SLOPE 14.9, PBLUC_R_SQUARED 0.0352, read-out: LUCIFERASE INFECTION ASSAY - IC50) is 7.7 µM.

`CCCCc1ccc2nc(NC(=O)c3cccnc3-n3cncn3)sc2c1`: the IC90 was over 10 µM. Moreover, the IC50 (HEPG2TOX_HILL_SLOPE 2.58, HEPG2TOX_R_SQUARED 0.943, PBLUC_HILL_SLOPE 1.45, PBLUC_R_SQUARED 0.435, read-out: LUCIFERASE INFECTION ASSAY - IC50) worked out at 4 µM.

As to `Cc1cc(C(=O)CN2C(=O)NC3(CCCc4sccc43)C2=O)c(C)n1Cc1ccc2c(c1)OCO2` (stereo not given), the concentration for an effect of 90% (IC90) is over 10 µM. For the same molecule, for the setting “PBLUC_HILL_SLOPE 2.26, PBLUC_R_SQUARED 0.443, read-out: LUCIFERASE INFECTION ASSAY - IC50”, the IC50 is 8.17 µM.

Consider `CC1CCCC(C)N1CCC(=O)NNC(=O)c1cc(-c2ccc(Cl)cc2)nc2ccccc12` (stereo not given), for which the concentration for an effect of 90% (IC90) is over 10 µM. The IC50 under setting [1] is 7.66 µM.

For the molecule `O=c1c2ccccc2[nH]c2ccc(Oc3ncnc4ccsc34)cc12`, the IC90 was 0.558 µM. For the same molecule, the IC50 (FFLUC_HILL_SLOPE 10.4, FFLUC_R_SQUARED 0.538, PBLUC_HILL_SLOPE 5.72, PBLUC_R_SQUARED 0.733, read-out: LUCIFERASE INFECTION ASSAY - IC50) was determined as 0.38 µM.

Regarding `OCc1ccc(-c2cnc3cnc(-c4ccsc4)cn23)cc1`, the 90% effect concentration (IC90) turned out to be 8.46 µM. Besides, under “PBLUC_HILL_SLOPE 3.6, PBLUC_R_SQUARED 0.458, read-out: LUCIFERASE INFECTION ASSAY - IC50”, the IC50 was 4.59 µM.

Turning to `CCCCOc1ccc(Nc2nc(C(N)Cc3ccc(OC)cc3)cs2)nn1` (stereo not given), the IC90 amounted to 3.76 µM. Also, the half-maximal inhibitory concentration (IC50) (PBLUC_HILL_SLOPE 10.9, PBLUC_R_SQUARED 0.27, read-out: LUCIFERASE INFECTION ASSAY - IC50) is 3.08 µM.

On to `Brc1ccc(-[n+]2nc(-c3ccccc3)nn2-c2nn[nH]n2)cc1`, for which the concentration for an effect of 90% (IC90) amounted to 4.45 µM. For the same molecule, where the note is “HEPG2TOX_HILL_SLOPE 1.48, HEPG2TOX_R_SQUARED 0.648, PBLUC_HILL_SLOPE 2.42, 13.8, PBLUC_R_SQUARED 0.208, 0.342, read-out: LUCIFERASE INFECTION ASSAY - IC50”, the half-inhibitory concentration (IC50) stood at 2.56 µM.

On to `CC1CCN(C(=O)c2csc(-c3ccco3)n2)c2ccccc2S1` (stereo not given), for which the concentration for an effect of 90% (IC90) stood at 7.59 µM. Also, where the note is “PBLUC_HILL_SLOPE 1.74, PBLUC_R_SQUARED 0.579, read-out: LUCIFERASE INFECTION ASSAY - IC50”, the half-inhibitory concentration (IC50) was found to be 2.14 µM.

On to `Cc1ccc(-c2csc(NC(=O)CSc3nc4ccccc4c(=O)n3CCCN(C)C)n2)cc1`, for which the concentration for an effect of 90% (IC90) was over 10 µM. Also, under setting [1], the IC50 was over 10 µM.

Turning to `CS(=O)(=O)c1ccc(C(F)(F)F)cc1[N+](=O)[O-]`, the IC90 is over 12.3 µM. Further, the IC50 under setting [1] is over 12.3 µM.

`COc1ccc(NC(=O)c2cc(S(N)(=O)=O)ccc2Br)cc1Cc1ccccc1`: the IC90 was over 10 µM. The IC50 under setting [1] is over 10 µM.

Turning to `CCCNC(=O)c1c(NC(=O)c2ccccc2)nc2ccc(C)cn12`, the IC90 worked out at 7.77 µM. Besides, where the note is “HEPG2TOX_HILL_SLOPE 1.15, HEPG2TOX_R_SQUARED 0.736, PBLUC_HILL_SLOPE 3.57, PBLUC_R_SQUARED 0.289, read-out: LUCIFERASE INFECTION ASSAY - IC50”, the half-inhibitory concentration (IC50) was determined as 4.2 µM.

In the case of `O=C(Nc1ccccc1)c1cc2sccc2s1`, the concentration for an effect of 90% (IC90) is over 12.7 µM. The half-inhibitory concentration (IC50) (HEPG2TOX_HILL_SLOPE 6.8, HEPG2TOX_R_SQUARED 0.21, read-out: LUCIFERASE INFECTION ASSAY - IC50) is over 12.7 µM.

`CC(C)(C)C1=CSC(=C2Sc3ccccc3C2=O)N1`: the IC90 is over 11.4 µM. Also, the half-maximal inhibitory concentration (IC50) (FFLUC_HILL_SLOPE 1.22, FFLUC_R_SQUARED 0.112, read-out: LUCIFERASE INFECTION ASSAY - IC50) was over 11.4 µM.

On to `COc1ccc(OC)c(Cn2cc(Br)ccc2=O)c1`, for which the IC90 is over 10 µM. The IC50 (HEPG2TOX_HILL_SLOPE 10.1, HEPG2TOX_R_SQUARED 0.0663, read-out: LUCIFERASE INFECTION ASSAY - IC50) is over 10 µM.

Consider `Cc1[nH]c2c(-c3ccccc3)c(C(F)(F)F)nn2c(=O)c1Cc1ccccc1`, for which the IC90 was over 8.61 µM. Further, under setting [1], the concentration for half-maximal inhibition (IC50) turned out to be 7.44 µM.

Turning to `O=[N+]([O-])c1ccc(Oc2cncc(Cl)c2)c(-c2nnc(-c3ccc(C(F)(F)F)cc3)o2)c1`, the IC90 was over 7.13 µM. In addition, for the setting “HEPG2TOX_HILL_SLOPE 2.45, HEPG2TOX_R_SQUARED 0.932, PBLUC_HILL_SLOPE 14.3, PBLUC_R_SQUARED 0.511, read-out: LUCIFERASE INFECTION ASSAY - IC50”, the concentration for half-maximal inhibition (IC50) was 6.55 µM.

Turning to `O=C(c1cnc(N2CCCC2)s1)c1sc2cc(Cl)cc(Cl)c2c1Cl`, the IC90 was over 10 µM. Moreover, the IC50 (FFLUC_HILL_SLOPE 11, FFLUC_R_SQUARED 0.0847, HEPG2TOX_HILL_SLOPE 2.22, HEPG2TOX_R_SQUARED 0.924, PBLUC_HILL_SLOPE 1.87, PBLUC_R_SQUARED 0.226, read-out: LUCIFERASE INFECTION ASSAY - IC50) amounted to 6.85 µM.

For `Cc1ccc(S(=O)(=O)N2CCC(C(=O)Nc3nnc(-c4ccc(Cl)cc4)o3)CC2)c(C)c1`, the IC90 is over 10 µM. Further, the half-inhibitory concentration (IC50) under setting [1] was over 10 µM.

Consider `OC1CCN(c2ccnc3c(-c4ccc(Oc5ccccc5)cc4)cnn23)CC1`, for which the 90% effect concentration (IC90) worked out at 7.21 µM. For the same molecule, under “HEPG2TOX_HILL_SLOPE 2.26, HEPG2TOX_R_SQUARED 0.638, PBLUC_HILL_SLOPE 2.48, PBLUC_R_SQUARED 0.699, read-out: LUCIFERASE INFECTION ASSAY - IC50”, the half-inhibitory concentration (IC50) worked out at 2.98 µM.

On to `CC(C)Cc1nc(N2CCNCC2)c(C#N)c2c1CCCC2`, for which the IC90 is over 11.1 µM. In addition, for the setting “PBLUC_HILL_SLOPE 17, PBLUC_R_SQUARED 0.257, read-out: LUCIFERASE INFECTION ASSAY - IC50”, the IC50 turned out to be 10 µM.

Consider `CCCOc1cc2cc(C(=O)c3ccccc3O)cnc2cc1OCCC`, for which the IC90 was found to be 4.78 µM. Besides, where the note is “FFLUC_HILL_SLOPE 5.56, FFLUC_R_SQUARED 0.125, HEPG2TOX_HILL_SLOPE 2.18, HEPG2TOX_R_SQUARED 0.51, PBLUC_HILL_SLOPE 8.83, PBLUC_R_SQUARED 0.576, read-out: LUCIFERASE INFECTION ASSAY - IC50”, the concentration for half-maximal inhibition (IC50) worked out at 3.73 µM.

As to `CC(=O)c1sc(SCCS(=O)(=O)c2ccc(C)cc2)c2c1CC(C)(C)CC2=O`, the concentration for an effect of 90% (IC90) is over 7.56 µM. Moreover, under setting [1], the IC50 was over 7.56 µM.

On to `Fc1cccc(-c2cnc3sc(NCCc4ccncc4)nn23)c1`, for which the IC90 was over 9.72 µM. For the setting “HEPG2TOX_HILL_SLOPE 0.66, HEPG2TOX_R_SQUARED 0.128, read-out: LUCIFERASE INFECTION ASSAY - IC50”, the IC50 is over 9.72 µM.

Consider `COc1ccc(-c2nn(-c3ccccc3)cc2/C=C/C(=O)NCCc2cn3ccccc3n2)cc1OC`, for which the IC90 is over 10 µM. Further, the IC50 (PBLUC_HILL_SLOPE 1.11, PBLUC_R_SQUARED 0.206, read-out: LUCIFERASE INFECTION ASSAY - IC50) was over 10 µM.

For the molecule `OCc1ccc(-c2cnc3ccc(-c4cccc(F)c4)nn23)cc1`, the 90% effect concentration (IC90) is 8.2 µM. For the same molecule, under “FFLUC_HILL_SLOPE 16.8, FFLUC_R_SQUARED 0.417, HEPG2TOX_HILL_SLOPE 9.34, HEPG2TOX_R_SQUARED 0.811, PBLUC_HILL_SLOPE 2.28, PBLUC_R_SQUARED 0.536, read-out: LUCIFERASE INFECTION ASSAY - IC50”, the IC50 amounted to 3.13 µM.

Regarding `Nc1ccccc1SC(CC(=O)c1ccccc1)c1ccc([N+](=O)[O-])cc1` (stereo not given), the IC90 was over 8.72 µM. Moreover, the concentration for half-maximal inhibition (IC50) (PBLUC_HILL_SLOPE 4.35, PBLUC_R_SQUARED 0.338, read-out: LUCIFERASE INFECTION ASSAY - IC50) is 8.12 µM.

As to `CC(C)c1ccc(/C=C2\CCc3c2nc2ccccc2c3C(=O)O)cc1`, the concentration for an effect of 90% (IC90) stood at 0.0263 µM. Further, the half-maximal inhibitory concentration (IC50) (PBLUC_HILL_SLOPE 81.7, PBLUC_R_SQUARED 0.0337, read-out: LUCIFERASE INFECTION ASSAY - IC50) is 0.0256 µM.

In the case of `O=C(NC(=O)c1csnn1)Nc1cc(C(F)(F)F)cc(C(F)(F)F)c1`, the concentration for an effect of 90% (IC90) is 2.08 µM. The IC50 (FFLUC_HILL_SLOPE 15.9, FFLUC_R_SQUARED 0.485, HEPG2TOX_HILL_SLOPE 1.3, HEPG2TOX_R_SQUARED 0.92, PBLUC_HILL_SLOPE 2.07, PBLUC_R_SQUARED 0.679, read-out: LUCIFERASE INFECTION ASSAY - IC50) stood at 0.72 µM.

As for `COc1ccccc1CNC(=O)N/C=C/c1ccccc1Cl`, the 90% effect concentration (IC90) is over 10.4 µM. Besides, the 50% inhibitory concentration (IC50) (PBLUC_HILL_SLOPE 1.23, PBLUC_R_SQUARED 0.697, read-out: LUCIFERASE INFECTION ASSAY - IC50) is 5.38 µM.
